Like-named read-outs stand apart in the source and are kept apart here.
Columns and labels:
[1] = cited from earlier work
[2] = Improvement of water-solubility: standing of saccharide-transfer reaction solution at 4° C.; format: physicochemical; settings: 4° C. for 2 days
[3] = system: α-glucosidase (EC 3.2.1.20) derived from pig liver; assay: Stability against hydrolysis by α-glucosidase; format: in vitro ADME
Excerpt: Acid hydrolysis of the α-glucosyl hesperidin led to the formation of 1 mole of rhamnose and 2 moles of D-glucose per 1 mole hesperidin, while an α-glucosidase, obtained by the extraction from pig liver and partial purification, hydrolyzed α-glucosyl hesperidin into hesperidin and D-glucose.

[4] = system: dd mice; assay: Acute toxicity test; format: in vivo; settings: oral, 7 week-old dd mice
Excerpt: As the result, no mouse died when administered with up to […] of the specimen, and higher dose was difficult.

## COc1ccc([C@@H]2CC(=O)c3c(O)cc(O[C@@H]4O[C@H](CO[C@@H]5O[C@@H](C)[C@H](O)[C@@H](O)[C@H]5O)[C@@H](O)[C@H](O)[C@H]4O)cc3O2)cc1O [hesperidin]
[1]; ambient temperature
  solubility in water: about 0.002 w/v %
  solubility in water (weight per volume of water): about 1 g in 50 liters of water
[1]
  solubility in water (in words): hardly soluble
[2]
  appearance of solution after standing: white turbidity

## COc1ccc(C2CC(=O)c3c(O)cc(O[C@@H]4O[C@H](CO[C@@H]5O[C@@H](C)[C@H](O)[C@@H](O)[C@H]5O)[C@@H](O[C@H]5O[C@H](CO)[C@@H](O)[C@H](O)[C@H]5O)[C@H](O)[C@H]4O)cc3O2)cc1O (stereo partly drawn) [α-glucosyl hesperidin]
[3]; α-glucosidase from pig liver
  hydrolysis by α-glucosidase into hesperidin and D-glucose: hydrolyzed

## COc1ccc(C2CC(=O)c3c(O)cc(O[C@@H]4O[C@H](CO[C@@H]5O[C@@H](C)[C@H](O)[C@@H](O)[C@H]5O)[C@@H](O[C@H]5O[C@H](CO)[C@@H](O)[C@H](O)[C@H]5O)[C@H](O)[C@H]4O)cc3O2)cc1O (stereo partly drawn) [α-glycosyl hesperidin specimen [II]]
[4]
  toxicity (conclusion in words): extremely low

## α-glycosyl hesperidin
[3]
  hydrolysis by α-glucosidase into hesperidin and D-glucose: hydrolyzable

Source: US5652124A (priority 1989, dated 1997)
